Experimental data published in PMC6349357, “Computational and experimental analysis of bioactive peptide linear motifs in the integrin adhesome” (PLoS ONE, 2019).
Entries after “also recorded” stand apart in the source; their conditions may differ. Marks after values point to notes of the source that are not given here.

How the values were obtained:
[1] = tested on: resting platelets; experiment: Platelet aggregation induced by peptide in resting washed platelets (activation); type: cell-based, human (healthy volunteers)
Summary of the method: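 Washed human platelets (from ACD blood, PGE1-treated) were used at 3x10^5/μl in buffer A pH 7.4 with 1.8 mM CaCl2. Light-transmission aggregometry ran at 37°C with stirring at 1100 rpm. Peptide or buffer was added at 2 min, TRAP 6 min later, and aggregation was recorded for a further 7 min.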

[2] = biological target: T1, vinculin (Homo sapiens, UniProt P18206); experiment: Surface plasmon resonance, peptides injected over immobilised vinculin; type: binding; settings: SPR, CM5 chip, serial peptide injections at 1 mM; rank order
T1 sequence (P18206 1-1066 isoform P18206-2): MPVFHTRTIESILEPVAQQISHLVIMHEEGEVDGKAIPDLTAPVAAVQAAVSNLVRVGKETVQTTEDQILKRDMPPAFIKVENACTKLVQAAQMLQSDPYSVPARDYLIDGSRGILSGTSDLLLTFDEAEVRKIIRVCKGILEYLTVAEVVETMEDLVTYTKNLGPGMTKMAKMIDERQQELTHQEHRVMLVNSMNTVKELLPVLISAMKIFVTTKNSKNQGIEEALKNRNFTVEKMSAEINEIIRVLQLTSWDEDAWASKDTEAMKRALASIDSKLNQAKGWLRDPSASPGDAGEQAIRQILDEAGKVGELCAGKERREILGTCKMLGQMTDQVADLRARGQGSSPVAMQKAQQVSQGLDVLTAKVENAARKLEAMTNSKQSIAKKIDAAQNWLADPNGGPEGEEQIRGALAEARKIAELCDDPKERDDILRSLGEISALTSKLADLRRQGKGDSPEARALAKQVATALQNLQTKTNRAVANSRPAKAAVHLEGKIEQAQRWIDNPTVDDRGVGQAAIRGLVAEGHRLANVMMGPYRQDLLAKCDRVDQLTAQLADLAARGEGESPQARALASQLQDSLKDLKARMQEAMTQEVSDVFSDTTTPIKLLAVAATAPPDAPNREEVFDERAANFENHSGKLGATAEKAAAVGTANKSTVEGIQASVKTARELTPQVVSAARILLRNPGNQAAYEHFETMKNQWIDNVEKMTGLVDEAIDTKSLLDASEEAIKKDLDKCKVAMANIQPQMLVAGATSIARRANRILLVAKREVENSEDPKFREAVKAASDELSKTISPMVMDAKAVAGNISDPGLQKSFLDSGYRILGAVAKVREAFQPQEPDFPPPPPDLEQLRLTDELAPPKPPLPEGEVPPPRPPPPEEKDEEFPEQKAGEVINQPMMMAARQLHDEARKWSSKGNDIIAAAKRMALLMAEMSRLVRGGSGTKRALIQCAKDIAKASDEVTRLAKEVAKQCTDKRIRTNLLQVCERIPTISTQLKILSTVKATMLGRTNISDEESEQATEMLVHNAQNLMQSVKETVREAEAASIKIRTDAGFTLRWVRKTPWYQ
Method: The SPR experiments were performed using a Biacore T200 system (GE Healthcare), and Series S CM5 or SA chips with 4 flow cells each.
Lyophilized vinculin was dissolved in flow buffer to a concentration of 1 mg/ml and covalently coupled onto the carboxymethylated dextran matrix of CM5 sensor chips using standard amine coupling. The flow buffer contained 10 mM HEPES, 150 mM NaCl, 3 mM EDTA, 0.05% surfactant P20. The chip was activated with an injection of 70 μl of a mixture of 0.05 M EDC and 0.2 M NHS, followed by the injection of approximately 70 μl of 10 μg/ml vinculin in 10 mM sodium acetate, pH 5.0 in one flow cell to yield a response of 7200 RU. Remaining reactive groups in the channel were blocked with an injection of 100 μl ethanolamine. Binding experiments were performed by injecting peptides for 120 s at a flow rate of 20 μl/min, at a concentration of 1 mM in the flow buffer over the chip surface to monitor association kinetics, followed by buffer flow for 120 s to measure dissociation kinetics. Between experiments, the surface was regenerated by injecting a 60 second pulse of 10 mM glycine pH 2.

**Q.** Which Platelet activation, donor 14 06 13 ([1]; Fig S10 sheet, replicate 14_06_13, peptide 50 µM, unit assumed) does the source give for “tat-WEQLLTTIARTINEVENQI-(NH2) [tat-ACTN1_VBS]” here?
**A.** The Platelet activation, donor 14 06 13 was 68%.

**Q.** And the Platelet activation, donor 18 06 13 ([1]; Fig S10 sheet, replicate 18_06_13, peptide 50 µM, unit assumed)?
**A.** Its Platelet activation, donor 18 06 13 is 73%.

**Q.** What about the Platelet activation, donor 22 08 13 DONOR1 ([1]; Fig S10 sheet, replicate 22_08_13_DONOR1, peptide 50 µM, unit assumed) of the same substance?
**A.** Its Platelet activation, donor 22 08 13 DONOR1 is 59%.

**Q.** And the Platelet activation, donor 22 08 13 DONOR2 ([1]; Fig S10 sheet, replicate 22_08_13_DONOR2, peptide 50 µM, unit assumed)?
**A.** The Platelet activation, donor 22 08 13 DONOR2 was 41%.

**Q.** What about the Activation ([1]; platelet aggregation in resting platelets after 6 minutes incubation with peptide, pal-peptides 20 μM, tat-peptides 50 μM, optical density, aggregometer, mean, n>=3) of the same substance?
**A.** Its Activation is 66 ^*.

**Q.** What about the “Aggregation before TRAP activation, donor e” value ([1]; replicate donor e, pal 20 μM, tat 50 μM) of the same substance?
**A.** The value was 73.

**Q.** And the “Aggregation before TRAP activation, donor k” value ([1]; replicate donor k, pal 20 μM, tat 50 μM)?
**A.** The value was 59.

**Q.** And the “Aggregation before TRAP activation, donor l” value ([1]; replicate donor l, pal 20 μM, tat 50 μM)?
**A.** The value was 68.

**Q.** What about the “Relative binding affinity to immobilised vinculin” value [2] of the same substance?
**A.** Its value is “tat-ACTN1_VBS > TLN1_VBS-tat > ACTN1_VBS-tat > ACTN1_VBS; also recorded: bound with relatively higher affinity”.
